For orientation: EC50 means the midpoint of the concentration-response curve.

Each structure is given as a SMILES string.

The test deals with T1, ERR1 (also known as ERR-α or ERR-1) (Homo sapiens, UniProt P11474).
T1 sequence (P11474 193-421 limits assumed): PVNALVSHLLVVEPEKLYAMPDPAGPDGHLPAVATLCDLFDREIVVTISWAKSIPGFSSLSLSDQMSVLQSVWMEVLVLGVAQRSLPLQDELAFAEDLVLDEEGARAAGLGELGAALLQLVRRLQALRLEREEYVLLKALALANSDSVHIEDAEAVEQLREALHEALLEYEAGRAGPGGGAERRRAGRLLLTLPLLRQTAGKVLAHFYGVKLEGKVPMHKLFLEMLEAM
The test can be described thus: TR-FRET assay (disruption of co-activator peptide binding to ERR1 LBD). It is filed as biochemical. To be noted: 6 nM 6His-ERR1LBD, 6 nM GST-SRC-2 peptide; average of 3 independent experiments. In a few lines: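 Homogeneous TR-FRET measuring displacement of GST-hSRC2 co-activator peptide (6 nM) from His-tagged ERR1 LBD (6 nM), detected with α-GST Eu cryptate (30 nM) and α-His-XL665 (7.5 nM). Buffer 25 mM Tris pH 8, 2.5 mM Hepes, 20 mM KCl, 1 mM DTT, 0.05 mg/mL delipidated BSA; equilibration 4-18 h at 25° C. Hyperbolic dose-response fit, mean of 3 experiments.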
A general note: TR-FRET usually uses a lanthanide donor and a delayed reading to cut background.
On to `O=C(O)c1ccc(CN2C(=O)S/C(=C\c3ccc4c(cnn4Cc4ccc(Cl)cc4C(F)(F)F)c3)C2=O)o1` [Compound 380, 5-{[(5Z)-5-({1-[4-Chloro-2-(trifluoromethyl)benzyl]-1H-indazol-5-yl}methylidene)-2,4-dioxo-1,3-thiazolidin-3-yl]methyl}furan-2-carboxylic acid], for which a half-maximal response (EC50) required 15 nM.
Next, `CS(=O)(=O)NN1C(=O)S/C(=C\c2ccc3c(cnn3Cc3ccc(Cl)cc3C(F)(F)F)c2F)C1=O` [Compound 370, N-[(5Z)-5-({1-[4-Chloro-2-(trifluoromethyl)benzyl]-4-fluoro-1H-indazol-5-yl}methylidene)-2,4-dioxo-1,3-thiazolidin-3-yl]methanesulfonamide]: 48 nM.
For the molecule `N[C@H]1C[C@H](CN2C(=O)S/C(=C\c3ccc4c(cnn4Cc4ccc(Cl)cc4C(F)(F)F)c3)C2=O)C1` [Compound 100, (5Z)-3-[(trans-3-Aminocyclobutyl)methyl]-5-({1-[4-chloro-2-(trifluoromethyl)benzyl]-1H-indazol-5-yl}methylidene)-1,3-thiazolidine-2,4-dione], the EC50 turned out to be 46 nM.
`O=C1S/C(=C\c2ccc3c(cnn3Cc3ccc(F)cc3C(F)(F)F)c2)C(=O)N1[C@@H]1CNCC[C@H]1O` (relative stereo) [Compound 281, (5Z)-5-({1-[4-Fluoro-2-(trifluoromethyl)-benzyl]-1H-indazol-5-yl}methylidene)-3-[trans-4-hydroxypiperidin-3-yl]-1,3-thiazolidine-2,4-dione] gave an EC50 of 170 nM. Compared with the last molecule, the EC50 is about 3.7-fold higher.
`O=C1S/C(=C\c2ccc3c(cnn3Cc3ccc(Cl)cc3C(F)(F)F)c2)C(=O)N1Cc1cc(O)no1` [Compound 138, (5Z)-5-({1-[4-Chloro-2-(trifluoromethyl)benzyl]-1H-indazol-5-yl}methylidene)-3-[(3-hydroxyisoxazol-5-yl)methyl]-1,3-thiazolidine-2,4-dione] returned an EC50 of 42 nM. Compared with the last molecule, the EC50 is about 4-fold lower.
The result for `O=C(CN1C(=O)S/C(=C\c2ccc3c(c2)nnn3Cc2ccc(Cl)cc2C(F)(F)F)C1=O)NS(=O)(=O)N1CCCC1` [Compound 268, 2-[(5Z)-5-({1-[4-Chloro-2-(trifluoromethyl)benzyl]-1H-benzotriazol-5-yl}methylidene)-2,4-dioxo-1,3-thiazolidin-3-yl]-N-(pyrrolidin-1-ylsulfonyl)acetamide] reads 46 nM.
In turn, `CS(=O)(=O)NC(=O)CN1C(=O)S/C(=C\c2ccc3c(cnn3Cc3ccc(F)cc3C(F)(F)F)c2)C1=O` [Compound 185, 2-[(5Z)-5-({1-[4-Fluoro-2-(trifluoromethyl)benzyl]-1H-indazol-5-yl}methylidene)-2,4-dioxo-1,3-thiazolidin-3-yl]-N-(methylsulfonyl)acetamide] showed an EC50 of 277 nM.
Next, `O=C1S/C(=C\c2ccc3c(cnn3Cc3ccc(Cl)cc3C(F)(F)F)c2)C(=O)N1[C@H]1CCNC[C@@H]1F` [Compound 382, (5Z)-5-({1-[4-Chloro-2-(trifluoromethyl)benzyl]-1H-indazol-5-yl}methylidene)-3-[(3S,4S)-3-fluoropiperidin-4-yl]-1,3-thiazolidine-2,4-dione]: 11 nM.
Next, `COc1ccc(Cn2ncc3cc(/C=C4\SC(=O)N(CCCN(C)C)C4=O)ccc32)c(C(F)(F)F)c1` [Compound 10, (5Z)-3-[3-(Dimethylamino)propyl]-5-[(1-{[4-(methyloxy)-2-(trifluoromethyl)phenyl]-methyl}-1H-indazol-5-yl)methylidene]-1,3-thiazolidine-2,4-dione]: 8 nM; `O=C(O)CN1C(=O)S/C(=C\c2ccc3c(cnn3[C@@H]3CCc4cc(Cl)ccc43)c2)C1=O` [Compound 179, [(5Z)-5-({1-[(1R)-5-Chloro-2,3-dihydro-1H-inden-1-yl]-1H-indazol-5-yl}methylidene)-2,4-dioxo-1,3-thiazolidin-3-yl]acetic acid]: 3450 nM.
Take `COC(=O)NC1(CN2C(=O)S/C(=C\c3ccc4c(cnn4Cc4ccc(Cl)cc4C(F)(F)F)c3)C2=O)CCOCC1` [Compound 309, Methyl (4-{[(5Z)-5-({1-[4-chloro-2-(trifluoromethyl)benzyl]-1H-indazol-5-yl}methylidene)-2,4-dioxo-1,3-thiazolidin-3-yl]methyl}tetrahydro-2H-pyran-4-yl)carbamate]: the EC50 amounted to 15 nM. Compared with the last molecule, the EC50 is about 230-fold lower.
The molecule `O=C1S/C(=C\c2ccc3c(cnn3Cc3ccc(Cl)cc3C(F)(F)F)c2)C(=O)N1C1(C(=O)O)CCNCC1` [Compound 230, 4-[(5Z)-5-({1-[4-Chloro-2-(trifluoromethyl)benzyl]-1H-indazol-5-yl}methylidene)-2,4-dioxo-1,3-thiazolidin-3-yl]piperidine-4-carboxylic acid] yielded an EC50 of 16 nM.
Next, `O=C(O)c1ccc(S(=O)(=O)NCCN2C(=O)S/C(=C\c3ccc4c(cnn4Cc4ccc(Cl)cc4C(F)(F)F)c3)C2=O)o1` [Compound 421, 5-({2-[(5Z)-5-({1-[4-Chloro-2-(trifluoromethyl)benzyl]-1H-indazol-5-yl}methylidene)-2,4-dioxo-1,3-thiazolidin-3-yl]ethyl}sulfamoyl)furan-2-carboxylic acid]: 34 nM.
With `[2H]C([2H])([2H])N1CC[C@@H](N2C(=O)S/C(=C\c3ccc4c(cnn4Cc4ccc(Cl)cc4C(F)(F)F)c3)C2=O)[C@H](F)C1` (relative stereo) [Compound 329, (5Z)-5-({1-[4-Chloro-2-(trifluoromethyl)benzyl]-1H-indazol-5-yl}methylidene)-3-[trans-3-fluoro-1-(1,1,1-d3)-methylpiperidin-4-yl]-1,3-thiazolidine-2,4-dione], the EC50 amounted to 15 nM.
Molecule `CN(C)C1(CN2C(=O)S/C(=C\c3ccc4c(cnn4Cc4ccc(Cl)cc4C(F)(F)F)c3)C2=O)CCC1` [Compound 315, (5Z)-5-({1-[4-Chloro-2-(trifluoromethyl)benzyl]-1H-indazol-5-yl}methylidene)-3-{[1-(dimethylamino)cyclobutyl]methyl}-1,3-thiazolidine-2,4-dione] returned an EC50 of 71 nM. This EC50 is about 4.7-fold higher than that of the molecule before.
Next, `COc1ccc(Cn2ncc3cc(/C=C4\SC(=O)N(CCN5CCC(O)CC5)C4=O)ccc32)c(C(F)(F)F)c1` [Compound 15, (5Z)-3-[2-(4-Hydroxypiperidin-1-yl)ethyl]-5-({1-[4-methoxy-2-(trifluoromethyl)benzyl]-1H-indazol-5-yl}methylidene)-1,3-thiazolidine-2,4-dione]: 62 nM; `CN1CCN(N2C(=O)S/C(=C\c3ccc4c(cnn4Cc4ccc(Cl)cc4C(F)(F)F)c3)C2=O)CC1` [Compound 349, (5Z)-5-({1-[4-Chloro-2-(trifluoromethyl)benzyl]-1H-indazol-5-yl}methylidene)-3-(4-methylpiperazin-1-yl)-1,3-thiazolidine-2,4-dione]: 24 nM; `O=C1S/C(=C\c2ccc3c(cnn3Cc3ccc(Cl)cc3C(F)(F)F)c2)C(=O)N1N1CCNCC1` [Compound 351, (5Z)-5-({1-[4-Chloro-2-(trifluoromethyl)benzyl]-1H-indazol-5-yl}methylidene)-3-piperazin-1-yl-1,3-thiazolidine-2,4-dione]: 22 nM.
Next, `O=C1S/C(=C\c2ccc3c(cnn3Cc3ccc(Cl)cc3C(F)(F)F)c2)C(=O)N1CCNS(=O)(=O)CCl` [Compound 385, 1-Chloro-N-{2-[(5Z)-5-({1-[4-chloro-2-(trifluoromethyl)benzyl]-1H-indazol-5-yl}methylidene)-2,4-dioxo-1,3-thiazolidin-3-yl]ethyl}methanesulfonamide]: 39 nM.

Values taken from patent US8796256B2 (Janssen Pharmaceutica NV, priority 2010, dated 2014).
